Legend:
[1] = tested on: anti-sheep red blood cell antibody production; assay: suppression of mouse anti-sheep red blood cell antibody production; type: in vivo; conditions: for Body weight at 4 days later / Body weight on immunized day / Number of PFC per 1 × 10^7 cell / Number of PFC per spleen / Number of spleen cells / Suppression of number of PFC per 1 × 10^7 cell / Suppression of number of PFC per spleen / Wet weight of spleen / Wet weight of thymus: 4 days
Method: Male 5- to 7-week-old BALB/c mice were immunized with sheep red blood cells (5×10^7 cells/mouse, intravenous administration), and the test substance was administered intraperitoneally at the dose of 3 to 10 mg/kg/day for 4 consecutive days from the day of immunization. Four days after immunization, the spleen was resected, and suppression of anti-sheep red blood cell antibody production was examined by counting the number of plaque-forming cells (PFC) by direct plaque method using sheep red blood cells and guinea pig complement. At the same time, the body weight of the mouse, wet weight of the thymus and the spleen, and the number of spleen cells were also determined.

[2] = tested on: IL-2 response of mouse thymocytes; assay: suppression of the IL-2 response of mouse thymocytes; type: cell-based; conditions: for inhibition at 0.0001 µg/mL / inhibition at 0.001 µg/mL / inhibition at 0.01 µg/mL / inhibition at 0.1 µg/mL / inhibition at 1 µg/mL: Mus musculus, Thymocyte, 72 h
Method: (§1) The thymus was resected from 6-week-old male C3H/HeN mice, and a single cell suspension was prepared using the serum-free RPMI1640 culture medium. After washing three times, the cell suspension was adjusted to a concentration of 1.5×10^7 cells/ml in the RPMI1640 culture medium supplemented with 10^-4 M 2-mercaptoethanol and 20% FCS. […] After culturing the suspension for further 18 hours, the cells were harvested by a cell harvester, and the radioactivity incorporated into the cells was measured by a liquid scintillation counter, which was used as an index of IL-1, IL-2 or IL-4 response. The suppression of IL-1, IL-2 or IL-4 response was evaluated by calculating the percent suppression by the following formula. [formula]

[3] = tested on: IL-4 response of mouse thymocytes; assay: suppression of the IL-4 response of mouse thymocytes; type: cell-based; conditions: for inhibition at 0.0001 µg/mL / inhibition at 0.001 µg/mL / inhibition at 0.01 µg/mL / inhibition at 0.1 µg/mL / inhibition at 1 µg/mL: Mus musculus, Thymocyte, 72 h
Method: as §1

[4] = tested on: mouse acute graft versus host reaction (GVHR); assay: suppression of mouse acute graft versus host reaction (GVHR); type: in vivo
Method: C57BL/6 mouse spleen cell suspension (2×10^7 cells/mouse) was injected into the right hind footpad of 5- to 7-week-old BDF1 female mice. Seven days after injection, right popliteal lymph node was resected to measure the weight thereof and compare the weight with that of the left popliteal lymph node of the control mice injected with physiological saline, which was used as an index of acute graft versus host reaction (GVHR). The compound of Example 5 was administered intraperitoneally at the dose of 0.3 mg/kg, orally at the dose of 1 mg/kg and intramuscularly at the doses of 0.3 and 1 mg/kg for 6 days from the day of injection, and at the seventh day, the weight of the right poples lymphonodus was measured.

Q: With `CCCCCCCCCCCCCCCC[C@@H](O)[C@H](O)[C@@](N)(CO)C(=O)O` [Example 2] as the compound, how does the “Body weight at 4 days later” value ([1]; 3 mg/kg/day ip) read?
A: The value was 24 ± 1 g.

Q: What about the “Body weight on immunized day” value ([1]; 3 mg/kg/day ip) of the same compound?
A: The value was 22 ± 1 g.

Q: And the “Number of PFC per 1 × 10^7 cell” value ([1]; 3 mg/kg/day ip)?
A: Its value is 5.5 ± 0.8 × 10^3 /1 × 10^7 cell.

Q: And the “Number of PFC per spleen” value ([1]; 3 mg/kg/day ip)?
A: The value was 17.9 ± 3.6 × 10^4 /spleen.

Q: And the “Number of spleen cells” value ([1]; 3 mg/kg/day ip)?
A: Its value is 3.3 ± 0.5 × 10^8 cell.

Q: And the “Suppression of number of PFC per 1 × 10^7 cell” value ([1]; 3 mg/kg/day ip)?
A: The value was 36.8%.

Q: What about the “Suppression of number of PFC per spleen” value ([1]; 3 mg/kg/day ip) of the same compound?
A: The value was 23.2%.

Q: And the “Wet weight of spleen” value ([1]; 3 mg/kg/day ip)?
A: The value was 58 ± 11 mg.

Q: And the “Wet weight of thymus” value ([1]; 3 mg/kg/day ip)?
A: The value was 318 ± 42 mg.

Q: What about the “Body weight at 4 days later” value ([1]; 10 mg/kg/day ip) of the same compound?
A: The value was 23 ± 1 g.

Q: And the “Body weight on immunized day” value ([1]; 10 mg/kg/day ip)?
A: Its value is 22 ± 1 g.

Q: What about the “Number of PFC per 1 × 10^7 cell” value ([1]; 10 mg/kg/day ip) of the same compound?
A: Its value is 4.0 ± 2.0 × 10^3 /1 × 10^7 cell.

Q: And the “Number of PFC per spleen” value ([1]; 10 mg/kg/day ip)?
A: Its value is 10.2 ± 5.5 × 10^4 /spleen.

Q: What about the “Number of spleen cells” value ([1]; 10 mg/kg/day ip) of the same compound?
A: Its value is 2.5 ± 0.2 × 10^8 cell.

Q: And the “Suppression of number of PFC per 1 × 10^7 cell” value ([1]; 10 mg/kg/day ip)?
A: The value was 54.9%.

Q: What about the “Suppression of number of PFC per spleen” value ([1]; 10 mg/kg/day ip) of the same compound?
A: The value was 56.2%.

Q: What about the “Wet weight of spleen” value ([1]; 10 mg/kg/day ip) of the same compound?
A: Its value is 58 ± 10 mg.

Q: And the “Wet weight of thymus” value ([1]; 10 mg/kg/day ip)?
A: The value was 233 ± 25 mg.

Q: And the “effect on anti-sheep red blood cell antibody production (in words)” value ([1]; ip)?
A: The value was “exhibits suppressive effect on anti-sheep red blood cell antibody production”.

Q: How did the 3H-thymidine uptake ([2]; 0.0001 μg/ml, IL-2 10 U/ml) turn out when `CCCCCCCCCCCCC/C=C/C[C@@H](O)[C@H](O)[C@@](N)(CO)C(=O)O` [Example 5] was run?
A: Its 3H-thymidine uptake is 2810 cpm.

Q: And the 3H-thymidine uptake ([2]; 0.0001 μg/ml, IL-2 50 U/ml)?
A: The 3H-thymidine uptake was 63715 cpm.

Q: What about the 3H-thymidine uptake ([2]; 0.001 μg/ml, IL-2 10 U/ml) of the same compound?
A: The 3H-thymidine uptake was 1660 cpm.

Q: What about the 3H-thymidine uptake ([2]; 0.001 μg/ml, IL-2 50 U/ml) of the same compound?
A: Its 3H-thymidine uptake is 57600 cpm.

Q: What about the 3H-thymidine uptake ([2]; 0.01 μg/ml, IL-2 10 U/ml) of the same compound?
A: Its 3H-thymidine uptake is 1285 cpm.

Q: And the 3H-thymidine uptake ([2]; 0.01 μg/ml, IL-2 50 U/ml)?
A: Its 3H-thymidine uptake is 32955 cpm.

Q: And the 3H-thymidine uptake ([2]; 0.1 μg/ml, IL-2 10 U/ml)?
A: Its 3H-thymidine uptake is 1125 cpm.

Q: And the 3H-thymidine uptake ([2]; 0.1 μg/ml, IL-2 50 U/ml)?
A: The 3H-thymidine uptake was 24600 cpm.

Q: And the 3H-thymidine uptake ([2]; 1 μg/ml, IL-2 10 U/ml)?
A: Its 3H-thymidine uptake is 1300 cpm.

Q: And the 3H-thymidine uptake ([2]; 1 μg/ml, IL-2 50 U/ml)?
A: Its 3H-thymidine uptake is 25525 cpm.

Q: And the inhibition at 0.0001 µg/mL ([2]; 0.0001 μg/ml, IL-2 10 U/ml)?
A: The inhibition at 0.0001 µg/mL was 0%.

Q: And the inhibition at 0.0001 µg/mL ([2]; 0.0001 μg/ml, IL-2 50 U/ml)?
A: The inhibition at 0.0001 µg/mL was 0%.

Q: And the inhibition at 0.001 µg/mL ([2]; 0.001 μg/ml, IL-2 10 U/ml)?
A: Its inhibition at 0.001 µg/mL is 46.7%.

Q: What about the inhibition at 0.001 µg/mL ([2]; 0.001 μg/ml, IL-2 50 U/ml) of the same compound?
A: Its inhibition at 0.001 µg/mL is 4.5%.

Q: What about the inhibition at 0.01 µg/mL ([2]; 0.01 μg/ml, IL-2 10 U/ml) of the same compound?
A: Its inhibition at 0.01 µg/mL is 62.1%.

Q: What about the inhibition at 0.1 µg/mL ([2]; 0.1 μg/ml, IL-2 10 U/ml) of the same compound?
A: The inhibition at 0.1 µg/mL was 68.6%.

Q: And the inhibition at 0.1 µg/mL ([2]; 0.1 μg/ml, IL-2 50 U/ml)?
A: Its inhibition at 0.1 µg/mL is 59.4%.

Q: And the inhibition at 1 µg/mL ([2]; 1 μg/ml, IL-2 10 U/ml)?
A: The inhibition at 1 µg/mL was 61.5%.

Q: And the inhibition at 1 µg/mL ([2]; 1 μg/ml, IL-2 50 U/ml)?
A: The inhibition at 1 µg/mL was 58%.

Q: And the inhibition at 0.01 µg/mL ([2]; 0.01 μg/ml, IL-2 50 U/ml)?
A: The inhibition at 0.01 µg/mL was 45.5%.

Q: And the 3H-thymidine uptake ([3]; 0.0001 μg/ml, IL-4 50 U/ml)?
A: The 3H-thymidine uptake was 3190 cpm.

Q: What about the 3H-thymidine uptake ([3]; 0.0001 μg/ml, IL-4 250 U/ml) of the same compound?
A: The 3H-thymidine uptake was 45895 cpm.

Q: And the 3H-thymidine uptake ([3]; 0.001 μg/ml, IL-4 50 U/ml)?
A: The 3H-thymidine uptake was 2025 cpm.

Q: And the 3H-thymidine uptake ([3]; 0.001 μg/ml, IL-4 250 U/ml)?
A: Its 3H-thymidine uptake is 39150 cpm.

Q: And the 3H-thymidine uptake ([3]; 0.01 μg/ml, IL-4 50 U/ml)?
A: The 3H-thymidine uptake was 1385 cpm.

Q: What about the 3H-thymidine uptake ([3]; 0.01 μg/ml, IL-4 250 U/ml) of the same compound?
A: Its 3H-thymidine uptake is 33515 cpm.

Q: What about the 3H-thymidine uptake ([3]; 0.1 μg/ml, IL-4 50 U/ml) of the same compound?
A: Its 3H-thymidine uptake is 815 cpm.

Q: And the 3H-thymidine uptake ([3]; 0.1 μg/ml, IL-4 250 U/ml)?
A: The 3H-thymidine uptake was 24655 cpm.

Q: What about the 3H-thymidine uptake ([3]; 1 μg/ml, IL-4 50 U/ml) of the same compound?
A: Its 3H-thymidine uptake is 885 cpm.

Q: What about the 3H-thymidine uptake ([3]; 1 μg/ml, IL-4 250 U/ml) of the same compound?
A: Its 3H-thymidine uptake is 21250 cpm.

Q: What about the inhibition at 0.0001 µg/mL ([3]; 0.0001 μg/ml, IL-4 50 U/ml) of the same compound?
A: The inhibition at 0.0001 µg/mL was 0%.

Q: What about the inhibition at 0.0001 µg/mL ([3]; 0.0001 μg/ml, IL-4 250 U/ml) of the same compound?
A: Its inhibition at 0.0001 µg/mL is 13.1%.

Q: What about the inhibition at 0.001 µg/mL ([3]; 0.001 μg/ml, IL-4 50 U/ml) of the same compound?
A: Its inhibition at 0.001 µg/mL is 8%.

Q: What about the inhibition at 0.001 µg/mL ([3]; 0.001 μg/ml, IL-4 250 U/ml) of the same compound?
A: Its inhibition at 0.001 µg/mL is 26%.

Q: What about the inhibition at 0.01 µg/mL ([3]; 0.01 μg/ml, IL-4 50 U/ml) of the same compound?
A: The inhibition at 0.01 µg/mL was 40.6%.

Q: What about the inhibition at 0.01 µg/mL ([3]; 0.01 μg/ml, IL-4 250 U/ml) of the same compound?
A: The inhibition at 0.01 µg/mL was 36.8%.

Q: And the inhibition at 0.1 µg/mL ([3]; 0.1 μg/ml, IL-4 50 U/ml)?
A: Its inhibition at 0.1 µg/mL is 69.7%.

Q: What about the inhibition at 1 µg/mL ([3]; 1 μg/ml, IL-4 50 U/ml) of the same compound?
A: The inhibition at 1 µg/mL was 66.2%.

Q: And the inhibition at 1 µg/mL ([3]; 1 μg/ml, IL-4 250 U/ml)?
A: The inhibition at 1 µg/mL was 60.2%.

Q: And the inhibition at 0.1 µg/mL ([3]; 0.1 μg/ml, IL-4 250 U/ml)?
A: The inhibition at 0.1 µg/mL was 46.3%.

Q: What about the “Body weight 7 days after injection” value ([4]; 0.3 mg/kg/day im × 6) of the same compound?
A: The value was 20.0 ± 0.7 g.

Q: What about the “Popliteal lymph node weight” value ([4]; 0.3 mg/kg/day im × 6) of the same compound?
A: The value was 2.88 ± 0.58 mg.

Q: And the Suppression ([4]; 0.3 mg/kg/day im × 6)?
A: Its Suppression is 60.0%.

Q: What about the “Body weight 7 days after injection” value ([4]; 0.3 mg/kg/day ip × 6) of the same compound?
A: Its value is 19.0 ± 2.2 g.

Q: What about the “Popliteal lymph node weight” value ([4]; 0.3 mg/kg/day ip × 6) of the same compound?
A: Its value is 4.46 ± 1.72 mg.

Q: What about the Suppression ([4]; 0.3 mg/kg/day ip × 6) of the same compound?
A: The Suppression was 38.1%.

Q: And the “Body weight 7 days after injection” value ([4]; 1 mg/kg/day im × 6)?
A: Its value is 18.8 ± 1.3 g.

Q: And the “Popliteal lymph node weight” value ([4]; 1 mg/kg/day im × 6)?
A: Its value is 2.28 ± 0.48 mg.

Q: And the Suppression ([4]; 1 mg/kg/day im × 6)?
A: Its Suppression is 68.3%.

Q: What about the “Body weight 7 days after injection” value ([4]; 1 mg/kg/day po × 6) of the same compound?
A: Its value is 20.4 ± 0.6 g.

Q: What about the “Popliteal lymph node weight” value ([4]; 1 mg/kg/day po × 6) of the same compound?
A: Its value is 3.30 ± 0.64 mg.

Q: And the Suppression ([4]; 1 mg/kg/day po × 6)?
A: Its Suppression is 54.2%.

Q: And the “mouse acute graft versus host reaction (in words)” value ([4]; intraperitoneal, oral or intramuscular)?
A: Its value is “strongly suppresses the mouse acute graft versus host reaction (GVHR)”.
